Tests used:
CHO-K1 cells = assay: Cytotoxicity to CHO-K1 cells that do not express hEGF receptors (MTT); format: cell-based; settings: CHO-K1, serum-free media, 2 days
Protocol: Cells were cultured on 96 well plates at 1×10^4 cells/ml for 1 day, and received serum-free media containing control and samples, and incubated for additional 2 days. Survival rate of the cells was measured with MTT, in an analogous manner as in Example 15(see: Table 4).

A431 tumor = assay: Anticancer effect in vivo, A431 tumor transplanted in nude mouse
Protocol: To evaluate anticancer activity of the fusion protein in vivo, A431 cultured cells were transferred subcutaneously to the abdominal region of an immunodeficient nude mouse(20-25 g body weight) at 2×10^7 in 0.2 ml. When the proper size of tumor was formed, tumor was removed from the mouse under sterilization condition and cut into pieces of 2-3 mm to be transferred subcutaneously with a troca. When the size of the transplanted tumor of the nude mouse reached […], mice were divided into 5 groups(6 mice in one group) for i.v. injection. 100 μg/kg body weight of the fusion protein and angiogenin were administered by i.v. injection every 3 day for 4 weeks. After final administration, the area of the tumor-surface was measured by vernier calipers.
The tumor cells were excised after 4 weeks and measured for the weight(see: Table 5).

yeast t-RNA = assay: RNase activity on yeast t-RNA (OD 260 nm); format: biochemical; settings: relative to angiogenin; 37° C., 2 hours
Protocol: 50 μl of sample containing a fusion protein was mixed with 50 μl of yeast t-RNA mixture containing reaction buffer composed of 120 mM HEPES, 120 mM NaCl, 0.004% BSA and incubated at 37° C. for 2 hours. Reaction was interrupted by an equal volume of 6% perchloric acid. Subsequently, the reaction mixture was centrifuged for 10 minutes and used to measure optical density at 260 nm from which the standard curve was made to measure RNase activity. Activities of the samples were compared with that of angiogenin(see: Table 2).

MCF-7 = assay: Cytotoxicity to breast cancer cells in vitro (MTT); format: cell-based, human; settings: MCF-7, serum-free media, 2 days
Protocol: In order to evaluate activity of the fusion protein in vitro, breast cancer cell line, MCF-7(ATCC-HTB22), was cultured in DMEM supplemented with 10% FBS. Cells were plated on 96-well plates at 1×10^4 cells/ml and cultured for 1 day. Medium was replaced with serum free-media containing control, sample, and 5-fluorouracil(for comparison) and cultured for 2 days, survival rate was measured with MTT(3-([…]-2-yl)-2,5-diphenyltetrazolium bromide), and IC50 was calculated(see: Table 3).

Molecule: O=c1[nH]cc(F)c(=O)[nH]1 [5-fluorouracil, reference compound]
- IC50 (CHO-K1 cells; Cricetulus griseus, 48 h): 49.5 nM

Molecule: Angiogenin: human angiogenin, 14.4 kD protein consisting of 123 amino acids, ribonuclease superfamily, SEQ ID No:2
- Mean tumor-surface B (after 4 weeks) (A431 tumor; 100 μg/kg i.v. every 3 day for 4 weeks, after 4 weeks): 477.2 ± 6.7 mm^2
- Mean tumor-surface A (on the day of administration) (A431 tumor; 100 μg/kg i.v. every 3 day for 4 weeks, day of administration): 79.3 ± 2.1 mm^2
- Mean tumor-surface B/A (A431 tumor; ratio of surface after 4 weeks to day of administration): 6.0
- Mean tumor weight (A431 tumor; tumor excised after 4 weeks, 100 μg/kg i.v. every 3 day): 5.0 ± 0.7 g
- RNase Activity(%) (yeast t-RNA): 100%
- IC50 (MCF-7): > 100 nM
- IC50 (CHO-K1 cells): > 100 nM

Molecule: hEGF-angiogenin: fusion protein of EGF-angiogenin expressed from pTE4083, SEQ ID No:19
- RNase Activity(%) (yeast t-RNA): 65-90%

— patent publication US6541619B1 (Daewoong Pharmaceutical Co., Ltd., priority 1997, dated 2003)
